Results on 2 molecules are retold here after patent US20240207215A1, “MARC1 INHIBITORS FOR TREATMENT OF LIPID METABOLISM DISORDERS” (priority 2020, published 2024).

In one assay the target is T1, human mARC1 (Homo sapiens, UniProt Q5VT66).
T1 construct: made in house; host or cells: Escherichia coli
T1 sequence (Q5VT66 53-337 limits assumed): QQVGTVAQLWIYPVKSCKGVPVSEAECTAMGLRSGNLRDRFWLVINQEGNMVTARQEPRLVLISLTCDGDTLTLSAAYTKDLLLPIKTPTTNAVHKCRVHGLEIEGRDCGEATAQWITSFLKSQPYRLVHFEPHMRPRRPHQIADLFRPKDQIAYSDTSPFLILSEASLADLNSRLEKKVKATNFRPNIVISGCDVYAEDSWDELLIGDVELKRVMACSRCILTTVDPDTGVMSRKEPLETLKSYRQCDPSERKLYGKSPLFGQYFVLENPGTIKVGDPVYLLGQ
Description: mARC1 three-component system (mARC1, cytochrome b5, cytochrome b5 reductase): conversion of benzamidoxime to benzamidine, NADH consumption at 340 nm / HPLC of benzamidine. It counts as biochemical. Conditions: recombinant mARC1 + CYB5B + CYB5R3, NADH, substrate BAO, 37° C., MES pH 6.0; FIGS. 1-4 (N-hydroxyurethane and urethane 1 mM in FIGS. 1, 3). As to the method:
(§1) The compounds N-hydroxyurethane (R1═H, R2═CH2CH3) and ethyl-N-(3-chlorophenyl) -hydroxycarbamate (R1═3-chlorophenyl, R2═CH2CH3) are used as examples of active compounds. FIGS. 1, 3 and 4 show the absorbance at 340 nm in dependence on the time for an incubation with the three-component system mARC1 and mARC2, respectively, cytochrome b5 and cytochrome b5 reductase, which catalyze the conversion of the model substrate benzamidoxime (BAO) to benzamidine in the presence of the cosubstrate NADH (5). The decrease in the concentration of NADH due to its absorption maximum at 340 nm is thereby measured. From the measurement results, which are shown in the bar graph of FIG. 4, the inhibition of the conversion of benzamidoxime to benzamidine is evident by the lower consumption of NADH. NADH represents the required cosubstrate for the conversion. […] The down-regulation is only observed for mARC1 and not for mARC2 (FIG. 2).
(§2) 105 μl MES buffer (20 mM, pH 6.0) was placed in a micro-UV cuvette. […] This batch was then set as a blank sample and the absorbance was zeroed. […] Herein, the absorbance spectrum between 300 nm and 400 nm was recorded every 30 s for a period of 10 min (spectrophotometer Cary® 50 Bio with Walter peltier system PCB 150, Agilent). […] The conversion rates of BAO with and without inhibitor were compared based on the absorbance change at 340 nm to determine the degree of inhibition. […]

A further assay concerns the target T2, human mARC2 (Homo sapiens, UniProt Q969Z3).
T2 construct: made in house; host or cells: Escherichia coli
T2 sequence (Q969Z3 36-335): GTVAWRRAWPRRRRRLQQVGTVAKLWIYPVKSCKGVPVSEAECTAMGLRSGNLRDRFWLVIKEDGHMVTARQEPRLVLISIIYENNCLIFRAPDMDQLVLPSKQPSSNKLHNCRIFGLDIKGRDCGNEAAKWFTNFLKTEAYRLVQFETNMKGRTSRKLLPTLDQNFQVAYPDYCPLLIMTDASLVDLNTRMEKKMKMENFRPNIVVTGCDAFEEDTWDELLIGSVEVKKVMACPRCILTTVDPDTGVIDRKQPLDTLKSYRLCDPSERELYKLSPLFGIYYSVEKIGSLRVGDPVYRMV
Kind of assay: mARC2 three-component system (mARC2, cytochrome b5, cytochrome b5 reductase): conversion of benzamidoxime to benzamidine, NADH consumption at 340 nm / HPLC of benzamidine. It counts as biochemical. As to conditions: recombinant mARC2 + CYB5B + CYB5R3, NADH, substrate BAO; FIG. 2. As to the method:
as §1, §2

Assay [1] concerns cytochrome b5 and/or cytochrome b5 reductase. Kind of assay: Inhibition of the electron transport partners, concluded from the non-inhibited mARC2 conversion. It counts as biochemical, human. As to conditions: concluded from the non-inhibited conversion for mARC2. The method, then: as §1, §2

`CCOC(=O)N(O)c1cccc(Cl)c1` [ethyl-N-(3-chlorophenyl)-hydroxycarbamate]: the “inhibition of the conversion of benzamidoxime to benzamidine by mARC1” value on human mARC1 is recorded as “inhibition occurs”.
`CCOC(=O)NO` [N-hydroxyurethane]: the “inhibition of the conversion of benzamidoxime to benzamidine by mARC1” value at human mARC1 is given as “inhibition occurs”. On human mARC2, the “down-regulation of the conversion of benzamidoxime to benzamidine by mARC2” value is “not for mARC2”. Besides, the “inhibition of cytochrome b5 and/or cytochrome b5 reductase” value in assay [1] was “are not inhibited”.
